In assay [1] the test system is activated factor X (factor Xa). The assay can be described thus: anti-Xa activity, amidolytic method on a chromogenic substrate. The class given is biochemical. The settings on record: isolated hexasaccharide. The protocol:
The anti-Xa activity is measured by the amidolytic method on a chromogenic substrate described by Teien et al., Thromb. Res., 10, 399-410 (1977), with, as standard, the first international standard for low-molecular-weight heparins. See Barrowcliffe, T. W., A. D. Curtis, et al. (1985). “Standardization of Low Molecular Weight Heparins: A Collaborative Study.” Thrombosis and Haemostasis 54: 675-679; and Barrowcliffe, T. W. (1988). “An International Standard for Low Molecular Weight Heparin.” Thrombosis and Haemostasis 60:1-7.

The target of assay [2] is ATIII (Homo sapiens, UniProt P01008).
Sequence of ATIII (P01008 33-464, species assumed): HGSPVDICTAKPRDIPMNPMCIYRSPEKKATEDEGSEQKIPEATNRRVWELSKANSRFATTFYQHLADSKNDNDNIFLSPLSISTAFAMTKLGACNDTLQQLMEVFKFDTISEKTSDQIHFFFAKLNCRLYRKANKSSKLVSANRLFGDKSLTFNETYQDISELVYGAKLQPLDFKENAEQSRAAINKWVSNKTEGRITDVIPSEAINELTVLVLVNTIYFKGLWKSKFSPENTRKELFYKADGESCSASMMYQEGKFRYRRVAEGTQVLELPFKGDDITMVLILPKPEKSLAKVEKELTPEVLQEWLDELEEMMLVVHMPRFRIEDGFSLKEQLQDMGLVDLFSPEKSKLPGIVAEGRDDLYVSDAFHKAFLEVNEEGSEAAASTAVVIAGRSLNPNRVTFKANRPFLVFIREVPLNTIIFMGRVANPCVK

Structures are written as SMILES.

For the compound `CC(=O)N[C@H]1[C@@H](O[C@H]2[C@H](O)[C@@H](O)[C@H](O[C@H]3[C@H](OS(=O)(=O)O)[C@@H](NS(=O)(=O)O)[C@@H](O[C@H]4[C@H](O)[C@@H](OS(=O)(=O)O)[C@H](O[C@H]5[C@H](O)[C@@H](NS(=O)(=O)O)[C@@H](O)O[C@@H]5COS(=O)(=O)O)O[C@H]4C(=O)O)O[C@@H]3COS(=O)(=O)O)O[C@@H]2C(=O)O)O[C@H](COS(=O)(=O)O)[C@@H](O[C@@H]2OC(C(=O)O)=C[C@H](O)[C@H]2O)[C@@H]1O` [hexasaccharide ΔIIa-IIs-Is], in assay [1], the aXa activity result was “greater than 740 U/mg”. The “affinity for ATIII” value in assay [2] was “high affinity”.

(Values after US8071570B2, “Mixtures of polysaccharides derived from heparin, their preparation and pharmaceutical compositions containing them” (Aventis Pharma S.A., priority 2002, dated 2011).)
